From patent US4246282A, “ω-Dialkylalkanoic acid derivatives used to induce antianoxic activity” (Labaz, priority 1979, dated 1981)

How the values were obtained:
[1] = β-Mercaptopropionic acid seizure (protection against the tonic seizure); format: in vivo, mice; conditions: Mus musculus, 0.25 h
Procedure: β-Mercaptopropionic acid is an inhibitor of glutamate decarboxylase (G.A.D.), an enzyme which catalyses the transformation of glutamate into γ-aminobutyric acid (GABA). As a consequent of this, a decrease in the GABA lever occurs together with generalized tonico-clonic seizures 3 to 4 minutes after administration.
In the present test, β-mercaptopropionic acid was administered intraperitoneally to batches of 10 male mice, at a dose of 70 mg/kg, 30 minutes after oral administration of a dose of the compound to be studied. The percentage of animals protected against the tonic seizure was registered 15 minutes after administration of the β-mercaptopropionicacid.

[2] = Pentylenetetrazol seizure; format: in vivo, mice; conditions: Mus musculus, 0.25 h
[3] = rota rod test (neurotoxicity, coordination of movements on a turning rod)
Procedure: This test enables the animal's ability to coordinate its movements on a turning rod to be evaluated. […] (a) 15 min. after administration of 500 mg/kg by oral route:

[4] = Anoxia in confined space (period of survival); format: in vivo, mice
Procedure: Batches of 15 male mice were treated with a dose of a compound to be studied. After that, each animal was placed in a hermetically sealed box of 200 cm^3. The animal was considered to be dead when it had stopped breathing.
The increase in the period of survival was then noted in % in comparison with the controls. […]

[5] = 15 min. after administration of 500 mg/kg by oral route
[6] = 30 min. after administration of 500 mg/kg by oral route
[7] = 15 min. after administration of 100 mg/kg by intraperitoneal route
[8] = 30 min. after administration of 100 mg/kg by intraperitoneal route

CCCC(CCC)CC(=O)[O-].[Na+]
ED50 ([1]; po): 168 mg/kg
ED50 ([2]; po): 95 mg/kg
% of failures [3, 5]: 30%
% of failures [3, 6]: 30%

CCCC(CCC)CC(N)=O [3-n-propyl-hexanamide, 3-n-Propyl-hexanamide]
% of failures [3, 5]: 30%
% of failures [3, 6]: 10%

CCCC(CCC)CCC(N)=O [4-n-propyl-heptanamide, 4-n-Propyl-heptanamide]
% of failures [3, 7]: 0%

CCCC(CCC)CCCC(N)=O [5-n-propyl-octanamide, 5-n-Propyl-octanamide]
% of failures [3, 5]: 0%
% of failures [3, 8]: 50%

CCCC(CCC)CCC(=O)O [ONa, n = 1]
% of failures [3, 7]: 30%

CCCC(CCC)CCCC(=O)O [ONa, n = 2]
ED50 ([1]; male mice, oral, 30 min before β-mercaptopropionic acid 70 mg/kg i.p., registered 15 minutes after, read-out: ED50): 273 mg/kg
% of failures [3, 5]: 20%
% of failures [3, 8]: 100%

CCCC(CCC)C(N)=O [di-n-propylacetamide]
ED50 ([2]; mice, oral route, registered 15 minutes after pentylenetetrazol, read-out: ED50): 46 mg/kg
increase in survival time ([4]; 50 mg/kg intraperitoneal): 12%
% of failures ([3]; 15 minutes after administration of 170 mg/kg by oral route): 50%

CCCC(CCC)C(=O)[O-].[Na+] [sodium di-n-propylacetate]
ED50 ([1]; po, an other comparative test, read-out: ED50): 175 mg/kg
increase in survival time ([4]; 200 mg/kg intraperitoneal): 32%
